Assay results taken from patent publication US20150166528A1, “Pesticidal methods using substituted 3-pyridyl thiazole compounds and derivatives for combating animal pests” (BASF SE, priority 2012, published 2015).

Experiments:
Format in all cases: in vivo
Aphis Craccivora = experiment: Cowpea aphid (Aphis craccivora) potted cowpea plant spray test; conditions: sprayed potted cowpea plants, population reduction assessed after 24, 72 and 120 hours, read-out: mortality in comparison with untreated controls
Procedure: The active compound was dissolved at the desired concentration in a mixture of 1:1 (vol:vol) distilled water:acetone. The test solution was prepared at the day of use.
Potted cowpea plants colonized with approximately 100-150 aphids of various stages were sprayed after the pest population has been recorded. Population reduction was assessed after 24, 72, and 120 hours.

Megoura viciae = experiment: Vetch aphid (Megoura viciae) leaf disk test, contact or systemic; conditions: foliar, 120 h, sprayed broad bean leaf disks, adult aphids, 5 days, read-out: mortality in comparison with untreated controls
Procedure: For evaluating control of vetch aphid (Megoura viciae) through contact or systemic means the test unit consisted of 24-well-microtiter plates containing broad bean leaf disks.
The compounds were formulated using a solution containing 75% v/v water and 25% v/v DMSO. Different concentrations of formulated compounds were sprayed onto the leaf disks at 2.5 μl, using a custom built micro atomizer, at two replications.
After application, the leaf disks were air-dried and 5-8 adult aphids were placed on the leaf disks inside the microtiter plate wells. The aphids were then allowed to suck on the treated leaf disks and were incubated at about 23±1° C. and about 50±5% relative humidity for 5 days. Aphid mortality and fecundity were then visually assessed.

Myzus persicae = experiment: Green peach aphid (Myzus persicae) artificial diet test, systemic; conditions: 72 h, in liquid artificial aphid diet, adult aphids, 3 days, read-out: mortality in comparison with untreated controls
From the text: For evaluating control of green peach aphid (Myzus persicae) through systemic means the test unit consisted of 96-well-microtiter plates containing liquid artificial diet under an artificial membrane.
The compounds were formulated using a solution containing 75% v/v water and 25% v/v DMSO. Different concentrations of formulated compounds were pipetted into the aphid diet, using a custom built pipetter, at two replications.
After application, 5-8 adult aphids were placed on the artificial membrane inside the microtiter plate wells. The aphids were then allowed to suck on the treated aphid diet and were incubated at about 23±1° C. and about 50±5% relative humidity for 3 days. Aphid mortality and fecundity was then visually assessed.

Bemisia Argentifolii = experiment: Silverleaf whitefly (Bemisia argentifolii) cotton plant spray test; conditions: 72 h, sprayed cotton plants, whitefly adults, 3 days after treatment, read-out: mortality in comparison with untreated controls
From the text: The active compounds were formulated in cyclohexanone as a 10,000 ppm solution supplied in tubes. The tubes were inserted into an automated electrostatic sprayer equipped with an atomizing nozzle and they served as stock solutions for which lower dilutions were made in 50% acetone:50% water (v/v). A nonionic surfactant (Kinetic®) was included in the solution at a volume of 0.01% (v/v).
Cotton plants at the cotyledon stage (one plant per pot) were sprayed by an automated electrostatic plant sprayer equipped with an atomizing spray nozzle. The plants were dried in the sprayer fume hood and then removed from the sprayer. Each pot was placed into a plastic cup and about 10 to 12 whitefly adults (approximately 3-5 days old) were introduced. The insects were collected using an aspirator and a nontoxic Tygon® tubing connected to a barrier pipette tip. The tip, containing the collected insects, were gently inserted into the soil containing the treated plant, allowing insects to crawl out of the tip to reach the foliage for feeding. Cups were covered with a reusable screened lid. Test plants were maintained in a growth room at about 25° C. and about 20-40% relative humidity for 3 days, avoiding direct exposure to fluorescent light (24 hour photoperiod) to prevent trapping of heat inside the cup. Mortality was assessed 3 days after treatment, compared to untreated control plants.

Heliothis virescens = experiment: Tobacco budworm (Heliothis virescens) insect diet egg/larval test; conditions: 120 h, sprayed onto insect diet with eggs, egg and larval mortality, 5 days, read-out: mortality in comparison with untreated controls
Procedure: For evaluating control of tobacco budworm (Heliothis virescens) the test unit consists of 96-well-microtiter plates containing an insect diet and 15-25 H. virescens eggs.
The compounds were formulated using a solution containing 75% v/v water and 25% v/v DMSO. Different concentrations of formulated compounds were sprayed onto the insect diet at 10 μl, using a custom built micro atomizer, at two replications.
After application, microtiter plates were incubated at about 28±1° C. and about 80±5% relative humidity for 5 days. Egg and larval mortality was then visually assessed.

Structure (SMILES)	mortality at 100 ppm (Aphis Craccivora) [%]	mortality at 800 ppm (Megoura viciae) [%]	mortality at 800 ppm (Myzus persicae) [%]	mortality at 300 ppm (Bemisia Argentifolii) [%]	mortality at 800 ppm (Heliothis virescens) [%]
CCN(C1=NCCS1)c1cnc(-c2cccnc2)s1 [C.1, N-(4,5-dihydrothiazol-2-yl)-N-ethyl-2-(3-pyridyl)thiazol-5-amine]	≥ 75	≥ 75	≥ 75	≥ 75	–
[O-][S+](c1ncccn1)c1cnc(-c2cccnc2)s1 (centres unmarked) [C.11, 2-(3-Pyridyl)-5-pyrimidin-2-ylsulfinyl-thiazole]	–	–	–	–	≥ 75
CCN(C1=NCCO1)c1sc(-c2cccnc2)nc1Cl [C.4, N-[4-chloro-2-(3-pyridyl)thiazol-5-yl]-N-ethyl-4,5-dihydrooxazol-2-amine]	≥ 75	≥ 75	≥ 75	≥ 75	–
CCN(C1=NCCS1)c1sc(-c2cccnc2)nc1Cl [C.3, 4-chloro-N-(4,5-dihydrothiazol-2-yl)-N-ethyl-2-(3-pyridyl)thiazol-5-amine]	≥ 75	≥ 75	–	–	–
